Test system: MDCK-II
Assay: Induction of claudin-1 mediated tight junction opening in MDCK-II cells assessed as increase in FITC-conjugated dextran incubated for 5 hrs relative to control
Type: cell-based
Set-up: concentration or dose not given beside the values
Details: Canis lupus familiaris

| SMILES | Activity | Activity (filed as opener) |
| --- | --- | --- |
| CCCCCCC(=O)N[C@@H](CC(C)C)C(=O)N[C@H](CCC(=O)O)C(=O)N[C@H](CCC(N)=O)C(=O)N[C@@H](C(=O)N[C@H](CC(C)C)C(=O)N[C@@H](CCC(N)=O)C(=O)N[C@@H]1COC(=O)[C@H]([C@@H](C)CC)NC(=O)[C@@H](CCC(N)=O)NC(=O)[C@H](CC(C)C)NC(=O)[C@H](CC(C)C)NC(=O)[C@@H](CCC(N)=O)NC(=O)[C@@H](CC(C)C)NC(=O)[C@@H](C(C)C)NC1=O)C(C)C | -2.8% |  |
| CCCCCCCCCCCCC(=O)N[C@@H](CC(C)C)C(=O)N[C@H](CCC(=O)O)C(=O)N[C@H](CCC(N)=O)C(=O)N[C@@H](C(=O)N[C@H](CC(C)C)C(=O)N[C@@H](CCC(N)=O)C(=O)N[C@@H]1COC(=O)[C@H]([C@@H](C)CC)NC(=O)[C@@H](CCC(N)=O)NC(=O)[C@H](CC(C)C)NC(=O)[C@H](CC(C)C)NC(=O)[C@@H](CCC(N)=O)NC(=O)[C@@H](CC(C)C)NC(=O)[C@@H](C(C)C)NC1=O)C(C)C | 33.3% |  |
| CCCCCCC[C@@H](O)CC(=O)N[C@@H](C)C(=O)N[C@H](CCC(=O)O)C(=O)N[C@H](CCC(N)=O)C(=O)N[C@@H](C(=O)N[C@H](CC(C)C)C(=O)N[C@@H](CCC(N)=O)C(=O)N[C@@H]1COC(=O)[C@H]([C@@H](C)CC)NC(=O)[C@@H](CCC(N)=O)NC(=O)[C@H](CC(C)C)NC(=O)[C@H](CC(C)C)NC(=O)[C@@H](CCC(N)=O)NC(=O)[C@@H](CC(C)C)NC(=O)[C@@H](C(C)C)NC1=O)C(C)C | 31.8% |  |
| CCCCCCCCCC(=O)N[C@@H](CC(C)C)C(=O)N[C@H](CCC(=O)O)C(=O)N[C@H](CCC(N)=O)C(=O)N[C@@H](C(=O)N[C@H](CC(C)C)C(=O)N[C@@H](CCC(N)=O)C(=O)N[C@@H]1COC(=O)[C@H]([C@@H](C)CC)NC(=O)[C@@H](CCC(N)=O)NC(=O)[C@H](CC(C)C)NC(=O)[C@H](CC(C)C)NC(=O)[C@@H](CCC(N)=O)NC(=O)[C@H](CC(C)C)NC(=O)[C@@H](C(C)C)NC1=O)C(C)C | 3.8% |  |
| CCCCCCC[C@@H](O)CC(=O)N[C@@H](CC(C)C)C(=O)N[C@H](CCC(=O)O)C(=O)N[C@H](C)C(=O)N[C@@H](C(=O)N[C@H](CC(C)C)C(=O)N[C@@H](CCC(N)=O)C(=O)N[C@@H]1COC(=O)[C@H]([C@@H](C)CC)NC(=O)[C@@H](CCC(N)=O)NC(=O)[C@H](CC(C)C)NC(=O)[C@H](CC(C)C)NC(=O)[C@@H](CCC(N)=O)NC(=O)[C@@H](CC(C)C)NC(=O)[C@@H](C(C)C)NC1=O)C(C)C | 32% |  |
| CCCCCCC[C@@H](O)CC(=O)N[C@@H](CC(C)C)C(=O)N[C@H](CCC(=O)O)C(=O)N[C@H](CCC(N)=O)C(=O)N[C@@H](C(=O)N[C@H](CC(C)C)C(=O)N[C@@H](CCC(N)=O)C(=O)N[C@@H]1COC(=O)[C@H]([C@@H](C)CC)NC(=O)[C@@H](C)NC(=O)[C@H](CC(C)C)NC(=O)[C@H](CC(C)C)NC(=O)[C@@H](CCC(N)=O)NC(=O)[C@@H](CC(C)C)NC(=O)[C@@H](C(C)C)NC1=O)C(C)C |  | 122% |
| CCCCCCC[C@@H](O)CC(=O)N[C@@H](CC(C)C)C(=O)N[C@H](C)C(=O)N[C@H](CCC(N)=O)C(=O)N[C@@H](C(=O)N[C@H](CC(C)C)C(=O)N[C@@H](CCC(N)=O)C(=O)N[C@@H]1COC(=O)[C@H]([C@@H](C)CC)NC(=O)[C@@H](CCC(N)=O)NC(=O)[C@H](CC(C)C)NC(=O)[C@H](CC(C)C)NC(=O)[C@@H](CCC(N)=O)NC(=O)[C@@H](CC(C)C)NC(=O)[C@@H](C(C)C)NC1=O)C(C)C | 30.7% |  |
| CC[C@H](C)[C@@H]1NC(=O)[C@@H](CCC(N)=O)NC(=O)[C@H](CC(C)C)NC(=O)[C@H](CC(C)C)NC(=O)[C@@H](CCC(N)=O)NC(=O)[C@@H](CC(C)C)NC(=O)[C@@H](C(C)C)NC(=O)[C@H](NC(=O)[C@H](CCC(N)=O)NC(=O)[C@@H](CC(C)C)NC(=O)[C@H](NC(=O)[C@@H](CCC(N)=O)NC(=O)[C@@H](CCC(=O)O)NC(=O)[C@H](CC(C)C)NC(=O)CCCC(C)C)C(C)C)COC1=O | 2.6% |  |
| CCCCCCC[C@@H](O)CC(=O)N[C@@H](CC(C)C)C(=O)N[C@H](CCC(=O)O)C(=O)N[C@H](CCC(N)=O)C(=O)N[C@@H](C(=O)N[C@H](CC(C)C)C(=O)N[C@@H](CCC(N)=O)C(=O)N[C@@H]1COC(=O)[C@H]([C@@H](C)CC)NC(=O)[C@@H](CCC(N)=O)NC(=O)[C@H](CC(C)C)NC(=O)[C@H](CC(C)C)NC(=O)[C@@H](C)NC(=O)[C@@H](CC(C)C)NC(=O)[C@@H](C(C)C)NC1=O)C(C)C |  | 85.3% |
| CCCCCCC[C@@H](O)CC(=O)N[C@@H](CC(C)C)C(=O)N[C@H](CCC(=O)O)C(=O)N[C@H](CCC(N)=O)C(=O)N[C@@H](C(=O)N[C@H](CC(C)C)C(=O)N[C@@H](CCC(N)=O)C(=O)N[C@@H]1COC(=O)[C@H]([C@@H](C)CC)NC(=O)[C@@H](CCC(N)=O)NC(=O)[C@H](CC(C)C)NC(=O)[C@H](C)NC(=O)[C@@H](CCC(N)=O)NC(=O)[C@@H](CC(C)C)NC(=O)[C@@H](C(C)C)NC1=O)C(C)C | 12.7% |  |
| CCCCCCCCCC(=O)N[C@@H](CC(C)C)C(=O)N[C@@H](CCC(=O)O)C(=O)N[C@H](CCC(N)=O)C(=O)N[C@@H](C(=O)N[C@H](CC(C)C)C(=O)N[C@@H](CCC(N)=O)C(=O)N[C@@H]1COC(=O)[C@H]([C@@H](C)CC)NC(=O)[C@@H](CCC(N)=O)NC(=O)[C@H](CC(C)C)NC(=O)[C@H](CC(C)C)NC(=O)[C@@H](CCC(N)=O)NC(=O)[C@@H](CC(C)C)NC(=O)[C@@H](C(C)C)NC1=O)C(C)C |  | 85.4% |
| CCCCCCC[C@@H](O)CC(=O)N[C@@H](CC(C)C)C(=O)N[C@H](CCC(=O)O)C(=O)N[C@H](CCC(N)=O)C(=O)N[C@@H](C(=O)N[C@H](CC(C)C)C(=O)N[C@@H](C)C(=O)N[C@@H]1COC(=O)[C@H]([C@@H](C)CC)NC(=O)[C@@H](CCC(N)=O)NC(=O)[C@H](CC(C)C)NC(=O)[C@H](CC(C)C)NC(=O)[C@@H](CCC(N)=O)NC(=O)[C@@H](CC(C)C)NC(=O)[C@@H](C(C)C)NC1=O)C(C)C |  | 94.8% |
| CCCCCCCCCC(=O)N[C@@H](CC(C)C)C(=O)N[C@H](CCC(=O)O)C(=O)N[C@H](CCC(N)=O)C(=O)N[C@@H](C(=O)N[C@H](CC(C)C)C(=O)N[C@H](CCC(N)=O)C(=O)N[C@@H]1COC(=O)[C@H]([C@@H](C)CC)NC(=O)[C@@H](CCC(N)=O)NC(=O)[C@H](CC(C)C)NC(=O)[C@H](CC(C)C)NC(=O)[C@@H](CCC(N)=O)NC(=O)[C@@H](CC(C)C)NC(=O)[C@@H](C(C)C)NC1=O)C(C)C | 0.8% |  |
| CCCCCCCCCC(=O)N[C@@H](CC(C)C)C(=O)N[C@H](CCC(=O)O)C(=O)N[C@H](CCC(N)=O)C(=O)N[C@@H](C(=O)N[C@H](CC(C)C)C(=O)N[C@@H](CCC(N)=O)C(=O)N[C@@H]1COC(=O)[C@H]([C@@H](C)CC)NC(=O)[C@@H](CCC(N)=O)NC(=O)[C@@H](CC(C)C)NC(=O)[C@H](CC(C)C)NC(=O)[C@@H](CCC(N)=O)NC(=O)[C@@H](CC(C)C)NC(=O)[C@@H](C(C)C)NC1=O)C(C)C | -2.3% |  |

From ChEMBL document CHEMBL5331117, “X-Ray Conformation and Structure-Activity Relationships of MA026, a Reversible Tight Junction Opener” (J Med Chem, 2023)
